US10674725B1, “Herbicidal composition and method for controlling weeds” (SUMITOMO CHEMICAL COMPANY, LIMITED, priority 2019, dated 2020)

Assays:
[1] = system: corn plant; details: corn at 2.5-leaf stage, spot-on 2nd leaf; dicamba-biproamine 4,000,000 ng/plant (acid equivalent), PPO inhibitor 2 ng/plant where added; 6 days after treatment
Experimental: An aqueous dilution of trifludimoxazin was prepared by mixing one part of a trifludimoxazin formulation (obtained by mixing a predetermined amount of trifludimoxazin with acetone containing 2% of Tween 20) with 4 parts of water, so as to have a concentration of 0.1 ppm of trifludimoxazin.
6 days after the spot-on treatments, an angle of inclination of the main tiller of the corn plant from the vertical line was measured as a quantitative measure of dicamba corn injury of leaning tiller.

[2] = system: soybean plant; details: soybean at 2 trifoliate leaf stage, spot-on 2nd trifoliate leaf; dicamba-biproamine 40,000 ng/plant (acid equivalent), PPO inhibitor 20 ng/plant where added; 6 days after treatment; visually estimated

Angle of inclination of the main tiller from the vertical line [1]: 90 degrees | Leaf area (% of non-treated) [2]: 40%
Compound: CN(CCCN)CCCN.COc1c(Cl)ccc(Cl)c1C(=O)O [Dicamba-biproamine, dicamba-biproamine]
